Results on 1 molecule are retold here after ChEMBL document CHEMBL5154691, “Discovery of novel verinurad analogs as dual inhibitors of URAT1 and GLUT9 with improved Druggability for the treatment of hyperuricemia” (Eur J Med Chem, 2022).

Series [1] has as its target T1, Broad substrate specificity ATP-binding cassette transporter ABCG2 (Homo sapiens, UniProt Q9UNQ0).
T1 sequence (Q9UNQ0 whole entry): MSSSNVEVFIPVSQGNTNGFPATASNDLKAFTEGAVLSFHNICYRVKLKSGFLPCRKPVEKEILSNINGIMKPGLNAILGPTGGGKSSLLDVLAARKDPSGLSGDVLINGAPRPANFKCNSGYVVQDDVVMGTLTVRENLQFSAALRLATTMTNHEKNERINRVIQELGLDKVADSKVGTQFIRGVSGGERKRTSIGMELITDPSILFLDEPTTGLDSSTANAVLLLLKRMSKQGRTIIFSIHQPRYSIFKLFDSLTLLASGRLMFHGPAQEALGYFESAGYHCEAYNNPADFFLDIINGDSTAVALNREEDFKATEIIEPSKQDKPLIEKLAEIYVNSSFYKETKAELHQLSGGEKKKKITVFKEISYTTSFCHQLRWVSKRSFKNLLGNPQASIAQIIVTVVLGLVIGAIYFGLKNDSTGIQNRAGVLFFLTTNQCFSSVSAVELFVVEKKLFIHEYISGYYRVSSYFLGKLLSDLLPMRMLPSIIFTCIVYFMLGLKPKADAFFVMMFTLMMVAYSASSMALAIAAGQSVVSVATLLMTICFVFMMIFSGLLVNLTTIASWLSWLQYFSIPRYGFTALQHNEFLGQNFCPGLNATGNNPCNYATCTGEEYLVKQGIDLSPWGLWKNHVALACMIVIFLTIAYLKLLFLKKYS
As to the kind of experiment: Inhibition of ABCG2 (unknown origin) expressed in HEK293 cells membrane vesicles assessed as inhibition of ATP-induced 14C-uric acid uptake preincubated for 15 mins followed by incubation with ATP and substrate for 5 mins by liquid scintillation counting analysis. The class given is toxicity, cell membranes, Membrane vesicle.

In series [2] the target is T2, Solute carrier family 22 member 12 (Homo sapiens, UniProt Q96S37).
T2 sequence (Q96S37 whole entry): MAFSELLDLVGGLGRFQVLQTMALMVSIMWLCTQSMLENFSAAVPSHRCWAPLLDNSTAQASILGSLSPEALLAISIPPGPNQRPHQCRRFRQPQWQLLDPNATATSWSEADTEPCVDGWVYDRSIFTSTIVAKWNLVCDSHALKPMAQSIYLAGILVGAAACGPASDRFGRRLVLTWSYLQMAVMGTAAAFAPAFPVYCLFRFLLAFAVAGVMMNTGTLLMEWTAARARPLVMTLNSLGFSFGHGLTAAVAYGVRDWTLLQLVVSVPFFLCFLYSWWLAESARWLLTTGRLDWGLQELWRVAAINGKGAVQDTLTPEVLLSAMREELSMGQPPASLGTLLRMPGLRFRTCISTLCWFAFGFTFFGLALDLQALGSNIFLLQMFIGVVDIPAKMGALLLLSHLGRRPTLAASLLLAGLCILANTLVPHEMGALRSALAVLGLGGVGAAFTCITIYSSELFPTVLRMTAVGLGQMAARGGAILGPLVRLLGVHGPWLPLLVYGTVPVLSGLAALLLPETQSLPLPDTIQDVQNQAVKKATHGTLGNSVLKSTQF
As to the kind of experiment: Inhibition of URAT1 (unknown origin)-mediated 14C-uric acid uptake expressed in HEK293 cells using 14C-uric acid as substrate preincubated for 30 mins followed by substrate addition and measured after 15 mins by liquid scintillation counting analysis. It is filed as cell-based.

Series [3] is described as follows: Tmax in Sprague-Dawley rat at 5 mg/kg, iv measured upto 36 hrs by LC-MS/MS analysis. The class given is ADME, organism-based. To be noted: in vivo.
The nature of series [4]: Cmax in Sprague-Dawley rat at 5 mg/kg, po measured upto 36 hrs by LC-MS/MS analysis. The class given is ADME, organism-based. On the set-up: time < 36 hrs, dose 5 mg/kg, route po. To be noted: in vivo.
Series [5] in a line: Renal toxicity in xanthine and potassium oxonate-induced acute hyperuricemia Kunming mouse model assessed as blood urea nitrogen level at 10 mg/kg, po measured after 3 hrs. Conditions: in vivo. The class given is organism-based.

As a reminder, the IC50 is the midpoint of a concentration-inhibition curve. As a reminder, the Tmax is the time at which the peak concentration occurs. A word on the Cmax: it is the peak of the concentration-time curve. Turning to `N#Cc1ccc(Nc2cnccc2SCc2ccccc2C(=O)[O-])c2ccccc12.[Na+]`, the IC50 in series [1] was found to be 26.7 µM; in series [2], 0.24 µM. Besides, the Tmax in series [3] came out at 10.2 min. This molecule returned a Cmax in series [4] of 7650 ng/mL. Also, the Activity entry in series [5] is listed as “Non-Toxic”.
